Reference: the supplement of paper PMC10307832

Assays:
Experiment in all cases: relative viability (nuclei count vs DMSO), 5 days (fraction); higher = more cells survive
[1] = compound: Cc1ccc(NC(=O)c2ccc(CN3CCN(C)CC3)cc2)cc1Nc1nccc(-c2cccnc2)n1 [Imatinib] + Cc1cc(Nc2cc(N3CCN(C)CC3)nc(Sc3ccc(NC(=O)C4CC4)cc3)n2)n[nH]1 [Tozasertib] (partner 0.1 µM)
Method in brief: (§1)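 Relative viability was taken as the ratio of nuclei in treated wells to nuclei in vehicle wells. Lung cancer cell lines in 1536-well plates received compounds by pin tool one day after seeding, either one drug alone or a fixed anchor-drug dose plus five library-drug doses (not always all listed) in √10 steps. Nuclei were counted on 4× images after 5 days of treatment, and values are medians of duplicate plates.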

[2] = compound: Cc1ccc(NC(=O)c2ccc(CN3CCN(C)CC3)cc2)cc1Nc1nccc(-c2cccnc2)n1 [Imatinib] + Cc1nc(NC(=O)N2CCC[C@H]2C(N)=O)sc1-c1ccnc(C(C)(C)C(F)(F)F)c1 [Alpelisib] (partner 2 µM)
Method in brief: as §1

[3] = compound: Cc1ccc(NC(=O)c2ccc(CN3CCN(C)CC3)cc2)cc1Nc1nccc(-c2cccnc2)n1 [Imatinib] + Cc1nc(Nc2ncc(C(=O)Nc3c(C)cccc3Cl)s2)cc(N2CCN(CCO)CC2)n1 [Dasatinib] (partner 0.075 µM)
Method in brief: as §1

[4] = compound: Cc1ccc(NC(=O)c2ccc(CN3CCN(C)CC3)cc2)cc1Nc1nccc(-c2cccnc2)n1 [Imatinib] + O=C(c1cc(Cc2n[nH]c(=O)c3ccccc23)ccc1F)N1CCN(C(=O)C2CC2)CC1 [Olaparib] (partner 8 µM)
Method in brief: as §1

Row | Cell Line | relative viability ([1]; first compound 0.02 µM) | relative viability ([1]; first compound 0.06325 µM) | relative viability ([1]; first compound 0.2 µM) | relative viability ([1]; first compound 0.6325 µM) | relative viability ([1]; first compound 2 µM) | relative viability ([2]; first compound 0.02 µM) | relative viability ([2]; first compound 0.06325 µM) | relative viability ([2]; first compound 0.2 µM) | relative viability ([2]; first compound 0.6325 µM) | relative viability ([2]; first compound 2 µM) | relative viability ([3]; first compound 0.02 µM) | relative viability ([3]; first compound 0.06325 µM) | relative viability ([3]; first compound 0.2 µM) | relative viability ([3]; first compound 0.6325 µM) | relative viability ([3]; first compound 2 µM) | relative viability ([4]; first compound 0.02 µM) | relative viability ([4]; first compound 0.06325 µM) | relative viability ([4]; first compound 0.2 µM) | relative viability ([4]; first compound 0.6325 µM) | relative viability ([4]; first compound 2 µM)
1 | COR-L 105 | 0.365 | 0.364 | 0.359 | 0.317 | 0.311 | 1.29 | 1.35 | 1.18 | 0.882 | 1.01 | 0.324 | 0.335 | 0.277 | 0.308 | 0.287 | 0.873 | 0.663 | 0.678 | 0.724 | 0.665
2 | NCI-H1666 | 0.622 | 0.623 | 0.603 | 0.665 | 0.574 | 1.04 | 1.05 | 1.09 | 1.34 | 0.887 | 0.83 | 0.838 | 0.825 | 0.792 | 0.697 | 0.734 | 0.763 | 0.769 | 0.833 | 0.74
3 | NCI-H1993 | 0.636 | 0.632 | 0.591 | 0.581 | 0.588 |  | 0.792 | 0.533 | 0.621 | 0.534 | 0.678 | 0.564 | 0.573 | 0.522 | 0.521 | 1.15 | 1.04 | 1.16 | 0.968 | 0.983
4 | H3255 | 0.604 | 0.608 | 0.638 | 0.575 | 0.614 | 0.815 |  | 0.747 | 0.645 | 0.618 | 0.443 | 0.346 | 0.351 | 0.361 | 0.258 | 0.576 | 0.572 | 0.565 | 0.566 | 0.612
5 | HARA | 0.083 |  | 0.107 | 0.0993 | 0.101 | 1 | 0.501 | 0.822 | 0.697 | 0.804 | 0.309 |  | 0.279 | 0.217 | 0.27 | 0.408 | 0.568 |  | 0.896 | 0.68
6 | NCI-H661 | 0.383 | 0.393 | 0.365 | 0.344 | 0.347 | 0.689 | 0.406 | 0.546 | 0.68 | 0.521 | 1.09 | 0.57 | 0.753 | 0.958 | 0.769 | 0.747 | 0.94 | 0.853 | 0.773 | 0.703
7 | NCI-H2347 |  | 0.521 | 0.499 | 0.446 | 0.407 | 1.15 | 0.968 | 0.933 | 1.11 | 1.09 | 0.317 | 0.266 | 0.256 | 0.283 | 0.251 | 0.551 |  | 0.614 | 0.587 | 0.479
8 | LU99A | 0.283 | 0.31 | 0.219 | 0.261 | 0.238 | 0.575 | 0.604 | 0.599 | 0.523 | 0.514 | 0.761 | 0.637 | 0.555 | 0.736 | 0.372 | 0.272 | 0.254 | 0.235 | 0.29 | 0.274
9 | A-427 | 0.192 |  | 0.176 | 0.195 | 0.197 | 1.11 |  |  | 1.1 | 1.06 |  |  | 0.798 | 0.805 | 0.714 | 0.797 |  | 0.754 | 0.715 | 0.748
10 | NCI-H2023 | 0.461 | 0.319 | 0.254 | 0.259 | 0.18 | 0.633 | 0.728 | 0.653 | 0.577 | 0.586 | 0.751 | 0.33 | 0.565 | 0.591 | 0.509 | 0.552 | 0.472 | 0.45 | 0.62 | 0.408
11 | NCI-H727 | 0.59 | 0.59 | 0.518 | 0.543 | 0.509 | 0.496 | 0.585 | 0.529 | 0.659 |  | 0.433 |  | 0.331 | 0.234 | 0.463 | 0.644 |  | 0.696 | 0.712 | 0.664
12 | LK-2 | 0.173 | 0.181 | 0.159 | 0.139 | 0.176 | 1.33 |  | 1.23 | 1.18 | 1.19 | 0.258 | 0.266 | 0.282 | 0.276 | 0.15 | 0.725 | 0.629 | 0.711 |  | 0.92
13 | BEN | 0.523 | 0.546 | 0.489 | 0.492 | 0.51 | 1.1 | 0.785 | 0.93 | 1.05 | 1.03 | 0.312 |  | 0.307 | 0.339 | 0.296 | 1.2 | 1.14 | 1.01 | 1.08 | 1.06
14 | NCI-H2228 | 0.196 |  | 0.205 | 0.186 | 0.203 | 0.814 | 0.782 | 0.724 | 0.626 | 0.807 | 0.621 |  | 0.464 | 0.424 | 0.55 | 0.597 | 1.13 | 0.684 | 0.681 | 0.542
15 | PC-14 | 0.665 |  | 0.592 | 0.591 | 0.516 | 1.15 |  | 1.13 | 0.926 | 0.854 | 0.221 | 0.201 | 0.2 | 0.196 | 0.239 | 0.274 | 0.229 | 0.357 | 0.221 | 0.244
16 | LOU-NH91 | 0.636 | 0.833 | 0.761 | 0.596 | 0.667 | 0.77 | 0.722 | 0.729 | 0.68 | 0.674 | 0.569 | 0.581 | 0.607 | 0.567 | 0.56 | 1.04 | 0.982 |  | 0.879 | 0.894
17 | RERF-LC-KJ | 0.527 | 0.498 | 0.476 | 0.389 | 0.305 | 0.841 | 0.723 | 0.8 |  | 0.8 | 0.927 | 0.602 | 0.987 | 0.771 | 0.841 | 1.03 | 0.933 | 1.1 |  | 0.898
